Test results taken from patent publication US12509460B2 (Skyhawk Therapeutics, Inc., priority 2019, dated 2025).
Read-outs that look alike come from different tables or passages of the source.

Legend:
MDR1 (P-gp) = assay: Blood-brain-barrier (BBB) penetration potential via MDCK-MDR1 permeability assay; conditions: dog; for Papp A→B at 120 min, 5 μM: MDCK-MDR1, pH 7.4, MDCK-MDR1: Papp A-B, A-B direction; for Papp B→A at 120 min, 5 μM: MDCK-MDR1, pH 7.4, MDCK-MDR1: Papp B-A, B-A direction
MDR1 = assay: as above; conditions: dog, MDCK-MDR1, pH 7.4, MDCK-MDR1: Efflux, efflux ratio
[1] = tested on: MDR1-MDCK cell monolayers; assay: as above; conditions: for MDCK-MDR1: % Recov A-B: A-B direction; for MDCK-MDR1: % Recov B-A: B-A direction
[2] = tested on: mHTT protein in GM04724 (CAG 70/20) Huntington's disease patient lymphoblast cells; assay: mHTT protein assay, 2B7-MW1 assay via Mesoscale Discovery (MSD); assay type: cell-based, human; conditions: GM04724 Huntington's disease patient lymphoblasts
In short: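 Patient lymphoblasts treated 48 h with compound from 10 μM to 0.6 nM. mHTT quantified by MSD 2B7-MW1 immunoassay, whose signal depends on polyQ expansion and HTT size. Viability measured on a replicate plate by CellTiter Glo.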

[3] = tested on: SMN protein in spinal muscular atrophy (SMA) patient fibroblasts (GM03813, Coriell); assay: SMN protein assay, Mesoscale Discovery (MSD); assay type: cell-based, human; conditions: SMA patient fibroblasts GM03813, 48 hours, MSD; read-out: SMN2 protein EC50
In short: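 SMA patient fibroblasts (GM03813) seeded at 7000 cells/well and exposed to compound at 2.5 μM to 0.6 nM for 48 hours. Lysates assayed for SMN by MSD immunoassay, with absolute SMN amount calculated from a per-plate SMN standard curve (1 μg/ml to 19.5 pg/ml).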

[4] = Quantitative splicing assay (HTT), qPCR; assay type: cell-based, human; conditions: Homo sapiens, GM04724, 24 h, GM04724 lymphoblasts, qPCR, read-out: HTT Splicing: E49-50 EC50
Procedure: Example A9: Quantitative Splicing Assay (HTT)
GM04724 (CAG 70/20) Huntington's disease patient lymphoblasts (Coriell) are plated in 96-well v-bottom plates at 50,000 cells/well. Immediately after plating, cells are dosed with compound for 24 h at concentrations ranging from 2.5 uM to 0.15 nM (0.1% DMSO). Treated cells are lysed and cDNA synthesized using the Fast Advanced Cells-to-Ct kit (Thermofisher A35378) according to the manufacturer's instructions. 2 uL of each cDNA are used in qPCR reactions to confirm the compound-induced inclusion of a cryptic exon within intron 49 of the Huntingtin (HTT) transcripts. The qPCR reactions are prepared in 384-well plates in 10 uL volume, using TagMan™ Fast Advanced Master Mix [ThermoFisher, 4444965] with primers and probes shown in the table below. Reactions are run in a Quant studio 6 qPCR instrument with default settings.

[5] = tested on: SMN FL and SMN Δ7 in spinal muscular atrophy (SMA) patient fibroblasts (GM03813, Coriell); assay: Quantitative splicing assay (SMN), qPCR; assay type: cell-based, human; conditions: SMA patient fibroblasts GM03813, 24 h, qPCR, read-out: SMN2 Splicing FL EC50
Procedure: Spinal muscular atrophy (SMA) patient fibroblasts (GM03813, Coriell) are plated in 96-well plates at 50,000 cells/well. […] Treated cells are lysed and cDNA synthesized using the Fast Advanced Cells-to-Ct kit (Thermofisher A35378) according to the manufacturer's instructions. 2 μL of each cDNA are used in qPCR reactions. […] Reactions are run in a Quant Studio 6 qPCR instrument with default settings.

Row | SMILES | Papp A→B at 120 min, 5 μM (MDR1 (P-gp)) [×10⁻⁶ cm/s] | Papp B→A at 120 min, 5 μM (MDR1 (P-gp)) [×10⁻⁶ cm/s] | efflux ratio at 120 min, 5 μM (MDR1) | MDCK-MDR1: % Recov A-B [1] [%] | MDCK-MDR1: % Recov B-A [1] [%] | EC50 [2] [nM] | EC50 [3] [nM] | EC50 [4] [nM] | EC50 ([5]; Homo sapiens, Fibroblast, 24 h) [nM] | EC50 [5] [nM]
1 | CN(c1ccc(-c2cc(F)c(-c3ccn(C)c(=O)c3)cc2O)nn1)[C@H]1C[C@@H]2CC[C@@H](N2)[C@H]1F [Compound 1B, 4-(2-fluoro-4-(6-(((1R,2R,3S,5S)-2-fluoro-8-azabicyclo[3.2.1]octan-3-yl)(methyl)amino)pyridazin-3-yl)-5-hydroxyphenyl)-1-methylpyridin-2(1H)-one] | 0.49 | 40.4 | 83 | 97 | 98 | 0.01 to 15 | 0.01 to 15 | 0.01 to 15 | 0.01 to 15 | –
2 | CN(c1ccc(-c2cc3ncccc3cc2O)nn1)[C@H]1C[C@@H]2CC[C@@H](N2)[C@H]1F [Compound 73B, 7-(6-(((1R,2R,3S,5S)-2-fluoro-8-azabicyclo[3.2.1]octan-3-yl)(methyl)amino)pyridazin-3-yl)quinolin-6-ol] | 3.38 | 55.1 | 16 | 72 | 72 | 16 to 50 | 16 to 50 | 0.01 to 15 | 0.01 to 15 | –
3 | CN(c1ccc(-c2ccc(-c3ccccn3)cc2O)nn1)[C@H]1C[C@@H]2CCC[C@@H](N2)[C@H]1F [Compound 23B, 2-(6-(((1R,2R,3S,5S)-2-fluoro-9-azabicyclo[3.3.1]nonan-3-yl)(methyl)amino)pyridazin-3-yl)-5-(pyridin-2-yl)phenol] | 3.17 | 48.2 | 15 | 68 | 98 | 16 to 50 | 0.01 to 15 | 16 to 50 | 16 to 50 | –
4 | CN(c1ccc(-c2cc3occc(=O)c3cc2O)nn1)[C@@H]1C[C@H]2CC[C@H](N2)[C@@H]1F [Compound 43A, 7-(6-(((1S,2S,3R,5R)-2-fluoro-8-azabicyclo[3.2.1]octan-3-yl)(methyl)amino)pyridazin-3-yl)-6-hydroxy-4H-chromen-4-one] | 2.14 | 23.2 | 11 | 64 | 58 | 16 to 50 | 0.01 to 15 | 51 to 100 | 16 to 50 | –
5 | CN(c1ccc(-c2cc3ccncc3cc2O)nn1)[C@H]1C[C@@H]2CC[C@@H](N2)[C@H]1F (single isomer, unassigned) [Compound 87B] | 3.3 | 28.7 | 9 | 70 | 88 | 0.01 to 15 | 0.01 to 15 | 0.01 to 15 | 0.01 to 15 | –
6 | CN(c1ccc(-c2cc3c(=O)n(C)cnc3cc2O)nn1)[C@H]1C[C@@H]2CC[C@@H](N2)[C@H]1F [Compound 85B, 6-(6-(((1R,2R,3S,5S)-2-fluoro-8-azabicyclo[3.2.1]octan-3-yl)(methyl)amino)pyridazin-3-yl)-7-hydroxy-3-methylquinazolin-4(3H)-one] | 0.71 | 48.5 | 68 | 98 | 103 | 0.01 to 15 | 0.01 to 15 | 0.01 to 15 | 0.01 to 15 | –
7 | CN(c1ccc(-c2cc3cnccc3cc2O)nn1)[C@@H]1C[C@H]2CC[C@H](N2)[C@@H]1F (single isomer, unassigned) [Compound 7A] | 3.31 | 20.1 | 6 | 65 | 75 | 0.01 to 15 | 0.01 to 15 | 16 to 50 | – | 16 to 50
8 | Cc1cc(=O)c2cc(-c3ccc(N(C)[C@@H]4C[C@H]5CC[C@H](N5)[C@@H]4F)nn3)c(O)cc2o1 [Compound 50A, 6-(6-(((1S,2S,3R,5R)-2-fluoro-8-azabicyclo[3.2.1]octan-3-yl)(methyl)amino)pyridazin-3-yl)-7-hydroxy-2-methyl-4H-chromen-4-one] | 2.16 | 68.3 | 32 | 85 | 92 | 0.01 to 15 | 0.01 to 15 | 0.01 to 15 | 16 to 50 | –
9 | CN(c1ccc(-c2cc3ccn(C)c(=O)c3cc2O)nn1)[C@H]1C[C@@H]2CC[C@@H](N2)[C@H]1F [Compound 84B, 6-(6-(((1R,2R,3S,5S)-2-fluoro-8-azabicyclo[3.2.1]octan-3-yl)(methyl)amino)pyridazin-3-yl)-7-hydroxy-2-methylisoquinolin-1(2H)-one] | 1.06 | 50.9 | 48 | 112 | 76 | 0.01 to 15 | 0.01 to 15 | 0.01 to 15 | 0.01 to 15 | –
10 | CN(c1ccc(-c2ccc(C#N)cc2O)nn1)[C@@H]1C[C@H]2CCC[C@H](N2)[C@@H]1F [Compound 39A, 4-(6-(((1S,2S,3R,5R)-2-fluoro-9-azabicyclo[3.3.1]nonan-3-yl)(methyl)amino)pyridazin-3-yl)-3-hydroxybenzonitrile] | 8.1 | 40.5 | 5 | 83 | 76 | 16 to 50 | 0.01 to 15 | 16 to 50 | 16 to 50 | –
11 | CN(c1ccc(-c2ccc(-n3ccnn3)cc2O)nn1)[C@H]1C[C@@H]2CC[C@@H](N2)[C@H]1F [Compound 61B, 2-(6-(((1R,2R,3S,5S)-2-fluoro-8-azabicyclo[3.2.1]octan-3-yl)(methyl)amino)pyridazin-3-yl)-5-(1H-1,2,3-triazol-1-yl)phenol] | 3.79 | 45.8 | 12 | 98 | 93 | 0.01 to 15 | 0.01 to 15 | 0.01 to 15 | 0.01 to 15 | –
12 | CN(c1ccc(-c2ccc(-c3cc[nH]n3)cc2O)nn1)[C@H]1C[C@@H]2CC[C@@H](N2)[C@H]1F (single isomer, unassigned) [Compound 33B] | 1.75 | 53 | 30 | 87 | 82 | 0.01 to 15 | 0.01 to 15 | 0.01 to 15 | 16 to 50 | –
13 | CN(c1ccc(-c2cc3c(=O)n(C)cnc3cc2O)nn1)[C@@H]1C[C@H]2CC[C@H](N2)[C@@H]1F [Compound 85A, 6-(6-(((1S,2S,3R,5R)-2-fluoro-8-azabicyclo[3.2.1]octan-3-yl)(methyl)amino)pyridazin-3-yl)-7-hydroxy-3-methylquinazolin-4(3H)-one] | 0.67 | 49.2 | 74 | 99 | 99 | 0.01 to 15 | 0.01 to 15 | 16 to 50 | 16 to 50 | –
14 | CN(c1ccc(-c2ccc(-n3nccn3)cc2O)nn1)[C@@H]1C[C@H]2CC[C@H](N2)[C@@H]1F [Compound 90A, 2-(6-(((1S,2S,3R,5R)-2-fluoro-8-azabicyclo[3.2.1]octan-3-yl)(methyl)amino)pyridazin-3-yl)-5-(2H-1,2,3-triazol-2-yl)phenol] | 6.97 | 22.5 | 3 | 41 | 69 | 0.01 to 15 | 0.01 to 15 | 0.01 to 15 | 0.01 to 15 | –
